Laboratory results from US20070060636A1, “High enantiomeric purity dexanabinol for pharmaceutical compositions” (priority 2002, published 2007).

Tests used:
[1] = single dose toxicity and pharmacokinetics, rat; format: in vivo, Sprague Dawley rats; settings: for AUC(0-inf) / Cmax: Sprague Dawley, plasma, single i.v. 50 mg/kg (NOAEL); for AUC∞ Ratio to Phase I / Cmax Ratio to Phase I / Cmax Ratio to Phase II: single i.v. 50 mg/kg; for AUC∞ Ratio to Phase I / Cmax Ratio to Phase I: vs human 150 mg Phase I; for Cmax Ratio to Phase II: vs human 150 mg Phase II
Description: (§1) The pharmacokinetics of dexanabinol of high enantiomeric purity formulated in CREMOPHOR EL®:ethanol as described in Example 4 were investigated in rats, rabbits, and monkeys following intravenous administration of single doses, and 14 and 28 days of repeated dosing. Human pharmacokinetics was studied during Phase I and Phase II clinical studies. Dexanabinol used in the pharmacokinetic studies was formulated as drug concentrates of 50 and 100 mg/ml and diluted with sterile 0.9% NaCl solution prior to intravenous (i.v.) administration to the desired final doses. Determination of dexanabinol concentrations in plasma and brain extracts was carried out using a validated Gas Chromatography-Mass Spectra (GC-MS) assay following solid phase extraction of the drug and derivatization. The limit of quantitation of the assay is 0.1 ng/ml.
(§2) Pharmacokinetic parameters were estimated by a non-compartmental method using WinNonlin Professional version 3.2 (Pharsight Corp., Mountain View, Calif.). The maximum plasma concentration (Cmax), when the drug is administered by infusion, is the concentration at the end of infusion. The Cmax following intravenous bolus administration is the value estimated by the software to be the concentration at t=0. The terminal slope (X) was estimated by linear regression through the last time points and used to calculate the terminal half-life (t1/2) from the following equation: t1/2=0.693/λ The area under the curve from time of dosing through the last time point (AUCz) was calculated by the linear trapezoid method. The AUC extrapolated to infinity (AUC∞) was calculated from the following equation: AUC∞=AUCz+Cz/λ where Cz is the concentration at the last time point predicted by the linear regression. AUC∞ was normalized for dose (mg/kg) and presented as AUC∞/Dose. Mean residence time (MRT), when the drug is administered by infusion is described by the following equation: MRT=(AUMC/AUC)−(TI)/2 Mean residence time after i.v. bolus administration is described by the following equation: MRT=(AUMC/AUC) where AUMC is the area under the first moment curve and TI is the length of infusion. Plasma clearance (CL), and the apparent volume of distribution at steady state (Vss) were calculated from the following equations: CL=Dose/AUC∞ Vss=MRT×CL
Table 6 summarizes the maximum plasma concentration (Cmax) and the area under the plasma concentration versus time curve (AUC) observed at the NOAEL doses cited above, as well as the animal to human exposure ratios (ER) for dexanabinol of high enantiomeric purity, expressed as the ratio of the pharmacokinetic (PK) parameter to that observed for a 150 mg dose in a Phase I study in human volunteers and in Phase II study in patients suffering from severe traumatic brain injury (TBI).

[2] = 14-day multiple dose pharmacokinetic/toxicity study, rabbit; format: in vivo, rabbits; settings: for AUC(0-inf) / Cmax: plasma, 25 mg/kg i.v. daily, final dose Day 14 (NOAEL); for AUC∞ Ratio to Phase I / Cmax Ratio to Phase I / AUC∞ Ratio to Phase II / Cmax Ratio to Phase II: 25 mg/kg Day 14; for AUC∞ Ratio to Phase I / Cmax Ratio to Phase I: vs human 150 mg Phase I; for AUC∞ Ratio to Phase II / Cmax Ratio to Phase II: vs human 150 mg Phase II
Description: as §1, §2
(§3) In 14-day multiple dose pharmacokinetic studies, the NOAEL was 15 mg/kg/day in rats and 25 mg/kg/day in rabbits. In a 28-day study in monkeys the NOAEL was 25 mg/kg/day. Cmax and AUC observed following the last dose at the NOAEL in the multiple dose toxicity studies and the ratios of these values to those observed in the Phase I and II studies for the 150 mg dose are shown in Table 7.

[3] = 28-day multiple dose study, monkey; format: in vivo, monkeys; settings: for AUC(0-inf) / Cmax: plasma, 25 mg/kg i.v. daily, final dose Day 28 (NOAEL); for AUC∞ Ratio to Phase I / Cmax Ratio to Phase I / AUC∞ Ratio to Phase II / Cmax Ratio to Phase II: 25 mg/kg Day 28; for AUC∞ Ratio to Phase I / Cmax Ratio to Phase I: vs human 150 mg Phase I; for AUC∞ Ratio to Phase II / Cmax Ratio to Phase II: vs human 150 mg Phase II
Description: as §1, §2, §3

[4] = both sexes, iv, rabbit male & female
[5] = both sexes, iv, monkey male & female

CCCCCCC(C)(C)c1cc(O)c2c(c1)OC(C)(C)[C@H]1CC=C(CO)C[C@H]21 [dexanabinol, 1,1-dimethylheptyl-(3S,4S)-7-hydroxy-Δ^6-tetrahydrocannabinol]
AUC(0-inf) ([1]; iv, rat female): 173 µg·h/mL
Cmax ([1]; iv, rat female): 38.8 µg/mL
AUC(0-inf) ([1]; iv, rat male): 67.5 µg·h/mL
Cmax ([1]; iv, rat male): 102 µg/mL
NOAEL ([1]; Sprague-Dawley, rat, in vivo, iv, single dose i.v., read-out: no observed adverse effect level (NOAEL)): 50 mg/kg
AUC∞ Ratio to Phase I ([1]; rat female): 54.0
Cmax Ratio to Phase I ([1]; rat female): 7.7
Cmax Ratio to Phase II ([1]; rat female): 19.7
AUC∞ Ratio to Phase I ([1]; rat male): 21.0
Cmax Ratio to Phase I ([1]; rat male): 20.4
Cmax Ratio to Phase II ([1]; rat male): 51.9
AUC(0-inf) [2, 4]: 67.7 µg·h/mL
Cmax [2, 4]: 132 µg/mL
AUC(0-inf) ([2]; iv, rabbit female): 67.9 µg·h/mL
Cmax ([2]; iv, rabbit female): 115 µg/mL
AUC(0-inf) ([2]; iv, rabbit male): 67.7 µg·h/mL
Cmax ([2]; iv, rabbit male): 150 µg/mL
AUC∞ Ratio to Phase I ([2]; rabbit female): 21.2
Cmax Ratio to Phase I ([2]; rabbit female): 23.0
AUC∞ Ratio to Phase II ([2]; rabbit female): 45.8
Cmax Ratio to Phase II ([2]; rabbit female): 58.6
AUC∞ Ratio to Phase I ([2]; rabbit male & female): 21.1
Cmax Ratio to Phase I ([2]; rabbit male & female): 26.4
AUC∞ Ratio to Phase II ([2]; rabbit male & female): 45.6
Cmax Ratio to Phase II ([2]; rabbit male & female): 67.2
AUC∞ Ratio to Phase I ([2]; rabbit male): 21.1
Cmax Ratio to Phase I ([2]; rabbit male): 29.9
AUC∞ Ratio to Phase II ([2]; rabbit male): 45.6
Cmax Ratio to Phase II ([2]; rabbit male): 76.0
NOAEL at 14 days ([2]; rabbit, in vivo, iv, 14-day multiple dose i.v.): 25 mg/kg/day
AUC(0-inf) [3, 5]: 193 µg·h/mL
Cmax [3, 5]: 162 µg/mL
AUC∞ Ratio to Phase I ([3]; monkey female): 55.5
Cmax Ratio to Phase I ([3]; monkey female): 32.2
AUC∞ Ratio to Phase II ([3]; monkey female): 120.0
Cmax Ratio to Phase II ([3]; monkey female): 81.9
AUC∞ Ratio to Phase I ([3]; monkey male & female): 60.2
Cmax Ratio to Phase I ([3]; monkey male & female): 32.4
AUC∞ Ratio to Phase II ([3]; monkey male & female): 130.2
Cmax Ratio to Phase II ([3]; monkey male & female): 82.5
AUC∞ Ratio to Phase I ([3]; monkey male): 64.9
Cmax Ratio to Phase I ([3]; monkey male): 32.6
AUC∞ Ratio to Phase II ([3]; monkey male): 140.4
Cmax Ratio to Phase II ([3]; monkey male): 83.0
NOAEL at 28 days ([3]; monkey, in vivo, iv, 28-day study i.v.): 25 mg/kg/day
AUC(0-inf) ([3]; iv, monkey female): 178 µg·h/mL
Cmax ([3]; iv, monkey female): 161 µg/mL
AUC(0-inf) ([3]; iv, monkey male): 208 µg·h/mL
Cmax ([3]; iv, monkey male): 163 µg/mL
